In patent US12070031B2 (priority 2020, dated 2024):
Counter-ions that a name gives are not always drawn.

Columns and labels:
X. alfalfae [1] = test: MIC by broth microdilution (CLSI) with resazurin; type: cell-based, Xanthomonas alfalfae subsp. citrumelonis
Protocol: (§1) The antimicrobial efficacy of the ZnNP-Strep and controls were evaluated by the antimicrobial assay methods as previously described. Briefly, Microplate Alamar Blue Assay (MABA) was performed to initially screen the antimicrobial efficacy of the NPs. Then, the minimum inhibitory concentration (MIC) was determined by broth microdilution method in accordance with the guidelines of the Clinical and Laboratory Standards Institute (CLSI). As per the CLSI requirements, from a starter culture of 0.5 McFarland Standard, 5×10^5 CFU/well was added to all the wells. […] The accuracy of the MIC determination was improved by adding 10 μL of resazurin dye (0.0125%, w/v) per 100 μL well volume and observing color changes (from blue to pink for live organisms).

P. syringae = test: MIC by broth microdilution (CLSI) with resazurin; type: cell-based, Pseudomonas syringae
Protocol: as §1

E. coli = test: MIC by broth microdilution (CLSI) with resazurin; type: cell-based, Escherichia coli
Protocol: as §1

X. alfalfae [2] = test: MIC of ZnNP-Strep after dialysis (simulated rainfall); type: cell-based, Xanthomonas alfalfae subsp. citrumelonis; conditions: Xanthomonas alfalfae; dialysis time N/A; relative to streptomycin concentration
Protocol: as §1
The antimicrobial efficacy of ZnNP-Strep was also studied after dialysis of the particles. […] The particles were dialyzed for 0, 1, 3, and 12 h and the remaining streptomycin loaded on the particles for each timepoint was quantified by LCMS by diluting the particles with 1% HCl and analyzing them with the previously described method. After streptomycin quantification the particles were diluted to 500 ppm streptomycin and their antimicrobial efficacy was assessed via MIC assay described above. The minimum bactericidal concentration (MBC) of the particles was also assessed by performing colony forming unit (CFU) plating. […]

X. alfalfae [3] = test: MBC by CFU plating after dialysis; type: cell-based, Xanthomonas alfalfae subsp. citrumelonis; conditions: Xanthomonas alfalfae; dialysis time N/A; relative to streptomycin concentration
Protocol: The antimicrobial efficacy of ZnNP-Strep was also studied after dialysis of the particles. The particles were dialyzed to remove any unbound streptomycin and simulate the effect of rainfall on the particles in field conditions. […] The particles were dialyzed for 0, 1, 3, and 12 h and the remaining streptomycin loaded on the particles for each timepoint was quantified by LCMS by diluting the particles with 1% HCl and analyzing them with the previously described method. After streptomycin quantification the particles were diluted to 500 ppm streptomycin and their antimicrobial efficacy was assessed via MIC assay described above. The minimum bactericidal concentration (MBC) of the particles was also assessed by performing colony forming unit (CFU) plating. After 24 h incubation of bacteria with the samples, 100 μL of the treated bacteria was then transferred to nutrient agar plates. They were then spread dry using sterile spreaders (Fisher Scientific) and incubated for 48 h to check for bacterial growth at each concentration tested.

[4] = tested on: tomato plants (Solanum lycopersicum); test: Phytotoxicity after foliar application; type: in vivo; set-up: key to Phytotoxicity, Tomato sp.: No toxicity (−); symptoms appear on less than 5% of the leaves was rated as minimal (+); 5 to 50% was rated as moderate (++); above 50% was rated as severe (+++); conditions: for Phytotoxicity, Tomato sp.: foliar, 72 h
Protocol: The phytotoxicity of the ZnNP adjuvant with and without streptomycin was tested on tomato plants (Solanum lycopersicum, model fruit plant, 11 cm tall) obtained from Home Depot. The ZnNP treatments were applied directly on plant leaves (foliar application) using a hand-held sprayer until excess liquid starts dripping. Foliar application was conducted at 8:00 a.m. in a greenhouse setting to simulate field conditions. Treated plants were then placed in a growth chamber, Panasonic environmental test chamber (model MLR-352H) with summer settings (34° C., 60-80% RH). Phytotoxicity was evaluated 72 h post application. Digital photographs of treated leaves were taken for the visual assessment (phenotypic) plant tissue damage. Parallel treatments were done with copper sulfate at 1000 μg/mL (positive control) and DI water (untreated control, UTC) to compare phytotoxicity level with the ZnNP treatments. The appearance of brown necrotic spots, chlorosis, and necrosis on the leaves is indicative of plant tissue damage (i.e. phytotoxicity). Phytotoxicity was rated as follows: No toxicity (−), symptoms appear on less than 5% of the leaves was rated as minimal (+), 5 to 50% was rated as moderate (++), and above 50% was rated as severe (+++). Phytotoxicity studies were carried out in triplicate for each treatment and concentration.

[5] = 24 h incubation, concentration active
[6] = highest concentration tested, 1000 μg/mL

## [H]/N=C(/N)N[C@H]1[C@H](O)[C@@H](O)[C@H](O[C@@H]2O[C@@H](C)[C@](O)(C=O)[C@H]2O[C@@H]2O[C@@H](CO)[C@H](O)[C@@H](O)[C@@H]2NC)[C@@H](N/C(N)=N\[H])[C@@H]1O [Streptomycin sulfate, streptomycin sulfate]
X. alfalfae [1]; Xanthomonas alfalfae, 24 h incubation, concentration active
  MIC: 2 µg/mL
P. syringae; Pseudomonas syringae, 24 h incubation, concentration active
  MIC: 2 µg/mL
E. coli; Escherichia coli, 24 h incubation, concentration active
  MIC: 6 µg/mL
X. alfalfae [2]
  MIC: 1 µg/mL
X. alfalfae [3]
  MBC: 16 µg/mL
[4]; 1000 μg/mL Strep
  Phytotoxicity, Tomato sp.: −

## CC(=O)N[C@@H](CS)C(=O)O [NAC, N-acetylcysteine]
X. alfalfae [1]; [5]
  X. alfalfae (MIC): No inhibition
X. alfalfae [1]; [6]
  growth inhibitory effect: no growth inhibitory effect
P. syringae; [5]
  P. syringae (MIC): No inhibition
P. syringae; [6]
  growth inhibitory effect: no growth inhibitory effect
E. coli; [5]
  E. coli (MIC): No inhibition
E. coli; [6]
  growth inhibitory effect: no growth inhibitory effect

## O=S(=O)([O-])[O-].[Cu+2] [Copper sulfate, copper sulfate]
[4]; 1000 μg/mL Cu
  Phytotoxicity, Tomato sp.: +++ (above 50% was rated as severe (+++))
[4]; 72 hrs after foliar application
  signs of phytotoxicity (visual): many brown spots
